Reference: patent US20250170090A1, “METHOD FOR PREVENTING OR TREATING DISEASE OR DISORDER ASSOCIATED WITH ANTINEOPLASTIC AGENT” (ONQUALITY PHARMACEUTICALS CHINA LTD., priority 2022, published 2025)
Like-named read-outs stand apart in the source and are kept apart here.

Assays:
[1] = system: hand-foot syndrome induced by anti-tumor agents; test: Prevention of hand-foot syndrome induced by anti-tumor agents in rats, NO-NSAID ointment on hind paws (Table 2-2); type: in vivo, SD rats; conditions: Rattus norvegicus, topical, read-out: Control rate; for responders at 0.5 %: ointment 0.50% wt; for responders at 1 %: ointment 1% wt; for responders at 2.5 %: ointment 2.50% wt; for responders at 5 %: ointment 5% wt
Excerpt: A rat animal model was constructed, and the anti-tumor agents shown in Table 2-2 were respectively administered to 8-week-old female SD rats by daily oral gavage. […] Therefore, rats serve as an excellent animal model for simulating side effects (such as hand-foot syndrome) caused by anti-tumor agents.
After the rats (about 200 g) were fed and adapted for one week, they were divided into a NO-NSAID group and a control group, with 10 rats in each group, and a gavage administration test was conducted. The various anti-tumor agents were dissolve in a mixed solution of Cremophor EL:ethanol=1:1. The anti-tumor agent solution were diluted with PBS to the required concentration (about 3 times with PBS solution) before gavage administration. After gavage, an ointment containing NO-NSAID was applied to the hind paws of the rats, while the control group was applied with a blank ointment. After application, the rats were placed in a fixed cylinder for 4 hours. After 4 hours, the rats were released and the residual ointment was wiped off with clean water, then the rats were returned to the cage. The gavage frequency of inhibitors was shown in Table 2-2, and NO-NSAID was only applied once a day. The gavage and application operations were repeated daily until the end of the experiment.
Table 2-2 lists the animal experimental combinations of various anti-tumor agents and NO-NSAID ointments, as well as the corresponding experimental results (wherein the value in the control rate column=the hand-foot syndrome incidence rate in the blank group−the hand-foot syndrome incidence rate in the treatment group).

HUVEC cells = test: CCK-8 cell viability: alleviation of proliferative toxicity of anti-tumor agents on HUVEC cells (Tables 7-1, 7-2); type: cell-based; conditions: for activation at 100 µM: Homo sapiens, 24 h, percentage increase in viable cells vs anti-tumor agent alone, read-out: Response rate % (average)
Experimental: The cultured HUVEC cells were digested the suspended, counted, and seed into a 96-well plate with 5,000-10,000 cells per well. The wells are divided into the following groups: blank control group, anti-tumor agent group, anti-tumor agent+NO-NSAID group, anti-tumor agent solvent group, NO-NSAID control group. Wherein each well of each group contained a basic medium, and the final liquid volume contained in each well was about 100 μL. The grouping situation was as follows: • 1) Blank control group: no solution was added except normally replacing the medium; • 2) Anti-tumor agent group: added the anti-tumor agent solution (the final concentration was shown in Table 7-1 and Table 7-2, the solvent of the anti-tumor agent solution was DMSO); • 3) Anti-tumor agent+NO-NSAID group: added the anti-tumor agent solution and the NO-NSAID solution (the final concentrations of anti-tumor agent and NO-NSAID were shown in Table 7-1 and Table 7-2, and according to the solubility of NO-NSAID, the solvent of NO-NSAID solution was selected as ethanol or sterile water, and minor volume differences in each group were adjusted by added the corresponding solvent); • 4) Anti-tumor agent solvent group: an equal volume of DMSO as contained in the corresponding anti-tumor agent solution in Group 2) was added; • 5) NO-NSAID control group: the same volume and type of solvent (for example, ethanol or sterile water) corresponding to the NO-NSAID contained in group 3) was added.
The anti-tumor agent solvent group was not involved in data processing and was only used as a reference for evaluating experimental system error. The NO-NSAID solvent control group was used for data correction to eliminate the influence of the solvent on the results.
After culturing for 24-48 hours, the Cell Counting Kit-8 (CCK-8) detection kit (C0037, Shanghai Beyotime Biotechnology Co., Ltd., Beyotime Biotechnology) was used to determine the cell viability. This allows for the calculation of the proliferative toxicity of anti-tumor agent on cell and the mitigating effect of NO-NSAID on proliferative toxicity. The results were statistically analyzed and plotted using GraphPad Prism 6.0 software and t test.

[2] = 120 h, Sorafenib 80 mg/kg once a day, Days 5
[3] = 432 h, Cabozantinib 50 mg/kg once a day, Days 18
[4] = 432 h, Lenvatinib 100 mg/kg twice a day, Days 18
[5] = 432 h, Nintedanib 110 mg/kg once a day, Days 18
[6] = 432 h, Regorafenib 90 mg/kg once a day, Days 18
[7] = Afatinib (10 μM), NO-NSAID 100 μM
[8] = Cabozantinib (5 μM), NO-NSAID 100 μM
[9] = Dabrafenib (10 μM), NO-NSAID 100 μM
[10] = Everolimus (5 μM), NO-NSAID 100 μM
[11] = Infigratinib (15 μM), NO-NSAID 100 μM
[12] = Lapatinib (5 μM), NO-NSAID 100 μM
[13] = Lenvatinib (10 μM), NO-NSAID 100 μM
[14] = Olmutinib (10 μM), NO-NSAID 100 μM
[15] = Regorafenib (5 μM), NO-NSAID 100 μM
[16] = Selumetinib (5 μM), NO-NSAID 100 μM
[17] = Sorafenib (5 μM), NO-NSAID 100 μM
[18] = Sunitinib (5 μM), NO-NSAID 100 μM

COc1ccc2cc(C(C)C(=O)OCCCCO[N+](=O)[O-])ccc2c1 (stereo not drawn) [Compound A5]
responders at 0.5 % [1, 2]: 28.6%
responders at 1 % [1, 2]: 50%
responders at 2.5 % [1, 2]: 71.4%
responders at 5 % [1, 2]: 80%
responders at 2.5 % ([1]; 360 h, Apatinib 105 mg/kg once a day, Days 15): 42.9%
responders at 2.5 % ([1]; 360 h, Encorafenib 80 mg/kg once a day, Days 15): 66.7%
responders at 2.5 % ([1]; 360 h, Lapatinib 120 mg/kg twice a day, Days 15): 60%
responders at 2.5 % ([1]; 360 h, Sunitinib 120 mg/kg once a day, Days 15): 57.1%
responders at 2.5 % ([1]; 384 h, Fruquintinib 40 mg/kg once a day, Days 16): 42.9%
responders at 2.5 % ([1]; 432 h, Anlotinib 20 mg/kg once a day, Days 18): 50%
responders at 2.5 % ([1]; 432 h, Axitinib 50 mg/kg once a day, Days 18): 66.7%
responders at 1 % [1, 3]: 42.9%
responders at 2.5 % [1, 3]: 60%
responders at 5 % [1, 3]: 57.1%
responders at 1 % [1, 4]: 28.6%
responders at 2.5 % [1, 4]: 71.4%
responders at 5 % [1, 4]: 71.4%
responders at 1 % [1, 5]: 40%
responders at 2.5 % [1, 5]: 66.7%
responders at 5 % [1, 5]: 50%
responders at 0.5 % [1, 6]: 50%
responders at 1 % [1, 6]: 71.4%
responders at 2.5 % [1, 6]: 71.4%
responders at 5 % [1, 6]: 83.3%
responders at 2.5 % ([1]; 480 h, Erdafitinib 45 mg/kg once a day, Days 20): 57.1%
responders at 2.5 % ([1]; 480 h, Olmutinib 100 mg/kg once a day, Days 20): 66.7%
NO-NSAID response rate % (average) (HUVEC cells; Afatinib (10 μM), NO-NSAID 0.1 μM): 24%
NO-NSAID response rate % (average) (HUVEC cells; Afatinib (10 μM), NO-NSAID 1 μM): 28%
NO-NSAID response rate % (average) (HUVEC cells; [7]): 69%
NO-NSAID response rate % (average) (HUVEC cells; Afatinib (10 μM), NO-NSAID 500 μM): 22%
NO-NSAID response rate % (average) (HUVEC cells; Cabozantinib (5 μM), NO-NSAID 0.1 μM): 1%
NO-NSAID response rate % (average) (HUVEC cells; Cabozantinib (5 μM), NO-NSAID 1 μM): 15%
NO-NSAID response rate % (average) (HUVEC cells; [8]): 60%
NO-NSAID response rate % (average) (HUVEC cells; Cabozantinib (5 μM), NO-NSAID 500 μM): 24%
NO-NSAID response rate % (average) (HUVEC cells; Dabrafenib (10 μM), NO-NSAID 0.1 μM): 27%
NO-NSAID response rate % (average) (HUVEC cells; Dabrafenib (10 μM), NO-NSAID 1 μM): 28%
NO-NSAID response rate % (average) (HUVEC cells; [9]): 65%
NO-NSAID response rate % (average) (HUVEC cells; Dabrafenib (10 μM), NO-NSAID 500 μM): 31%
NO-NSAID response rate % (average) (HUVEC cells; Everolimus (5 μM), NO-NSAID 0.1 μM): 0%
NO-NSAID response rate % (average) (HUVEC cells; Everolimus (5 μM), NO-NSAID 1 μM): −7%
NO-NSAID response rate % (average) (HUVEC cells; [10]): 28%
NO-NSAID response rate % (average) (HUVEC cells; Everolimus (5 μM), NO-NSAID 500 μM): −2%
activation at 100 µM (HUVEC cells; [7]): 69%
activation at 100 µM (HUVEC cells; Anlotinib (5 μM), NO-NSAID 100 μM): 57%
activation at 100 µM (HUVEC cells; Apatinib (10 μM), NO-NSAID 100 μM): 59%
activation at 100 µM (HUVEC cells; Axitinib (10 μM), NO-NSAID 100 μM): -2%
activation at 100 µM (HUVEC cells; [8]): 60%
activation at 100 µM (HUVEC cells; [9]): 65%
activation at 100 µM (HUVEC cells; Dacomitinib (5 μM), NO-NSAID 100 μM): 75%
activation at 100 µM (HUVEC cells; Encorafenib (5 μM), NO-NSAID 100 μM): 28%
activation at 100 µM (HUVEC cells; Erdafitinib (10 μM), NO-NSAID 100 μM): 43%
activation at 100 µM (HUVEC cells; [10]): 28%
activation at 100 µM (HUVEC cells; Famitinib (5 μM), NO-NSAID 100 μM): 35%
activation at 100 µM (HUVEC cells; Fruquintinib (10 μM), NO-NSAID 100 μM): 37%
activation at 100 µM (HUVEC cells; Gefitinib (10 μM), NO-NSAID 100 μM): 21%
activation at 100 µM (HUVEC cells; [11]): 48%
activation at 100 µM (HUVEC cells; [12]): 62%
activation at 100 µM (HUVEC cells; [13]): 32%
activation at 100 µM (HUVEC cells; [14]): 48%
activation at 100 µM (HUVEC cells; [15]): 83%
activation at 100 µM (HUVEC cells; [16]): 61%
activation at 100 µM (HUVEC cells; [17]): 1%
activation at 100 µM (HUVEC cells; [18]): 44%
activation at 100 µM (HUVEC cells; Vemurafenib (5 μM), NO-NSAID 100 μM): 24%
NO-NSAID response rate % (average) (HUVEC cells; Infigratinib (15 μM), NO-NSAID 0.1 μM): 28%
NO-NSAID response rate % (average) (HUVEC cells; Infigratinib (15 μM), NO-NSAID 1 μM): 30%
NO-NSAID response rate % (average) (HUVEC cells; [11]): 48%
NO-NSAID response rate % (average) (HUVEC cells; Infigratinib (15 μM), NO-NSAID 500 μM): 34%
NO-NSAID response rate % (average) (HUVEC cells; Lapatinib (5 μM), NO-NSAID 0.1 μM): 26%
NO-NSAID response rate % (average) (HUVEC cells; Lapatinib (5 μM), NO-NSAID 1 μM): 35%
NO-NSAID response rate % (average) (HUVEC cells; [12]): 62%
NO-NSAID response rate % (average) (HUVEC cells; Lapatinib (5 μM), NO-NSAID 500 μM): 36%
NO-NSAID response rate % (average) (HUVEC cells; Lenvatinib (10 μM), NO-NSAID 0.1 μM): 11%
NO-NSAID response rate % (average) (HUVEC cells; Lenvatinib (10 μM), NO-NSAID 1 μM): 44%
NO-NSAID response rate % (average) (HUVEC cells; [13]): 32%
NO-NSAID response rate % (average) (HUVEC cells; Lenvatinib (10 μM), NO-NSAID 500 μM): 16%
NO-NSAID response rate % (average) (HUVEC cells; Olmutinib (10 μM), NO-NSAID 0.1 μM): 19%
NO-NSAID response rate % (average) (HUVEC cells; Olmutinib (10 μM), NO-NSAID 1 μM): 34%
NO-NSAID response rate % (average) (HUVEC cells; [14]): 48%
NO-NSAID response rate % (average) (HUVEC cells; Olmutinib (10 μM), NO-NSAID 500 μM): 39%
NO-NSAID response rate % (average) (HUVEC cells; Regorafenib (5 μM), NO-NSAID 0.1 μM): 29%
NO-NSAID response rate % (average) (HUVEC cells; Regorafenib (5 μM), NO-NSAID 1 μM): 46%
NO-NSAID response rate % (average) (HUVEC cells; [15]): 83%
NO-NSAID response rate % (average) (HUVEC cells; Regorafenib (5 μM), NO-NSAID 500 μM): 22%
NO-NSAID response rate % (average) (HUVEC cells; Selumetinib (5 μM), NO-NSAID 0.1 μM): 38%
NO-NSAID response rate % (average) (HUVEC cells; Selumetinib (5 μM), NO-NSAID 1 μM): 42%
NO-NSAID response rate % (average) (HUVEC cells; [16]): 61%
NO-NSAID response rate % (average) (HUVEC cells; Selumetinib (5 μM), NO-NSAID 500 μM): 26%
NO-NSAID response rate % (average) (HUVEC cells; Sorafenib (5 μM), NO-NSAID 0.1 μM): 20%
NO-NSAID response rate % (average) (HUVEC cells; Sorafenib (5 μM), NO-NSAID 1 μM): 20%
NO-NSAID response rate % (average) (HUVEC cells; [17]): 1%
NO-NSAID response rate % (average) (HUVEC cells; Sorafenib (5 μM), NO-NSAID 500 μM): 3%
NO-NSAID response rate % (average) (HUVEC cells; Sunitinib (5 μM), NO-NSAID 0.1 μM): 20%
NO-NSAID response rate % (average) (HUVEC cells; Sunitinib (5 μM), NO-NSAID 1 μM): 40%
NO-NSAID response rate % (average) (HUVEC cells; [18]): 44%
NO-NSAID response rate % (average) (HUVEC cells; Sunitinib (5 μM), NO-NSAID 500 μM): 31%
